According to ChEMBL document CHEMBL3774317, “Design and synthesis of novel tamoxifen analogues that avoid CYP2D6 metabolism” (Eur J Med Chem, 2016):

What was measured:
Format in all cases: functional
CCRF-CEM = assay: Cytotoxicity against human CCRF-CEM cells assessed as cell growth at 5 uM after 48 hrs by SRB assay; details: read-out: Activity
EKVX = assay: Cytotoxicity against human EKVX cells assessed as cell growth at 5 nM after 48 hrs by SRB assay; details: read-out: Activity
[1] = Cytotoxicity against human SW620 cells assessed as cell growth at 5 nM after 48 hrs by SRB assay; details: SW-620, 48 h, read-out: Activity
KM12 = assay: Cytotoxicity against human KM12 cells assessed as cell growth at 5 uM after 48 hrs by SRB assay; details: KM12, 48 h, read-out: Activity
[2] = Cytotoxicity against human SKOV3 cells assessed as cell growth at 5 nM after 48 hrs by SRB assay; details: SK-OV-3, 48 h, read-out: Activity
[3] = Cytotoxicity against human UO31 cells assessed as cell growth at 50 uM after 48 hrs by SRB assay; details: UO-31, 48 h, read-out: Activity
[4] = Cytotoxicity against human HOP62 cells assessed as cell growth at 5 nM after 48 hrs by SRB assay; details: HOP-62, 48 h, read-out: Activity
MDA-MB-468 = assay: Cytotoxicity against human MDA-MB-468 cells assessed as cell growth at 0.5 uM after 48 hrs by SRB assay; details: MDA-MB-468, 48 h, read-out: Activity
A549 [5] = assay: Cytotoxicity against human A549 cells assessed as cell growth at 0.5 uM after 48 hrs by SRB assay; details: A549, 48 h, read-out: Activity
MDA-MB-231 = assay: Cytotoxicity against human MDA-MB-231 cells assessed as cell growth at 50 uM after 48 hrs by SRB assay; details: MDA-MB-231, 48 h, read-out: Activity
[6] = Cytotoxicity against human LOXIMVI cells assessed as cell growth at 0.5 uM after 48 hrs by SRB assay; details: LOX IMVI, read-out: Activity
[7] = Cytotoxicity against human TK10 cells assessed as cell growth at 5 uM after 48 hrs by SRB assay; details: TK-10, 48 h, read-out: Activity
[8] = Cytotoxicity against human BT549 cells assessed as cell growth at 0.5 uM after 48 hrs by SRB assay; details: BT-549, 48 h, read-out: Activity
[9] = Cytotoxicity against human OVCAR3 cells assessed as cell growth at 5 nM after 48 hrs by SRB assay; details: OVCAR-3, 48 h, read-out: Activity
[10] = Cytotoxicity against human OVCAR3 cells assessed as cell growth at 0.5 uM after 48 hrs by SRB assay; details: OVCAR-3, 48 h, read-out: Activity
[11] = Cytotoxicity against human SF268 cells assessed as cell growth at 50 uM after 48 hrs by SRB assay; details: SF-268, 48 h, read-out: Activity
MDA-MB-435 = assay: Cytotoxicity against human MDA-MB-435 cells assessed as cell growth at 5 uM after 48 hrs by SRB assay; details: MDA-MB-435, 48 h, read-out: Activity
A498 = assay: Cytotoxicity against human A498 cells assessed as cell growth at 0.5 uM after 48 hrs by SRB assay; details: A498, 48 h, read-out: Activity
A549 [12] = assay: Cytotoxicity against human A549 cells assessed as cell growth at 50 nM after 48 hrs by SRB assay; details: A549, 48 h, read-out: Activity
[13] = Cytotoxicity against human MOLT4 cells assessed as cell growth at 5 uM after 48 hrs by SRB assay; details: MOLT-4, 48 h, read-out: Activity
[14] = Cytotoxicity against human OVCAR8 cells assessed as cell growth at 0.5 uM after 48 hrs by SRB assay; details: OVCAR-8, 48 h, read-out: Activity
MCF7 [15] = assay: Cytotoxicity against human MCF7 cells assessed as cell growth at 0.5 uM after 48 hrs by SRB assay; details: MCF7, 48 h, read-out: Activity
A549 [16] = assay: Cytotoxicity against human A549 cells assessed as cell growth at 10^-7 M after 48 hrs by SRB assay; details: A549, 48 h, read-out: Activity
MCF7 [17] = assay: Cytotoxicity against human MCF7 cells assessed as cell growth at 10^-4 M after 48 hrs by SRB assay; details: MCF7, 48 h, read-out: Activity
[18] = Cytotoxicity against human SW620 cells assessed as cell growth at 10^-8 M after 48 hrs by SRB assay; details: SW-620, 48 h, read-out: Activity
[19] = Cytotoxicity against human SF268 cells assessed as cell growth at 10^-8 M after 48 hrs by SRB assay; details: SF-268, 48 h, read-out: Activity
[20] = Cytotoxicity against human PC3 cells assessed as cell growth at 10^-4 M after 48 hrs by SRB assay; details: PC-3, 48 h, read-out: Activity
[21] = Cytotoxicity against human BT549 cells assessed as cell growth at 10^-5 M after 48 hrs by SRB assay; details: BT-549, 48 h, read-out: Activity
786-0 = assay: Cytotoxicity against human 786-0 cells assessed as cell growth at 10^-4 M after 48 hrs by SRB assay; details: 786-0, 48 h, read-out: Activity
[22] = Cytotoxicity against human HCC2998 cells assessed as cell growth at 10^-4 M after 48 hrs by SRB assay; details: HCC 2998, 48 h, read-out: Activity
[23] = Cytotoxicity against human UACC257 cells assessed as cell growth at 10^-6 M after 48 hrs by SRB assay; details: UACC-257, 48 h, read-out: Activity
NCI-H522 = assay: Cytotoxicity against human NCI-H522 cells assessed as cell growth at 10^-5 M after 48 hrs by SRB assay; details: NCI-H522, 48 h, read-out: Activity
[24] = Cytotoxicity against human Hs 578T cells assessed as cell growth at 10^-6 M after 48 hrs by SRB assay; details: read-out: Activity
NCI-H460 = assay: Cytotoxicity against human NCI-H460 cells assessed as cell growth at 10^-5 M after 48 hrs by SRB assay; details: NCI-H460, 48 h, read-out: Activity
[25] = Cytotoxicity against human IGROV1 cells assessed as cell growth at 10^-6 M after 48 hrs by SRB assay; details: IGROV-1, 48 h, read-out: Activity
T47D = assay: Cytotoxicity against human T47D cells assessed as cell growth at 10^-7 M after 48 hrs by SRB assay; details: read-out: Activity
[26] = Cytotoxicity against human SNB75 cells assessed as cell growth at 10^-7 M after 48 hrs by SRB assay; details: SNB-75, 48 h, read-out: Activity
SN12C = assay: Cytotoxicity against human SN12C cells assessed as cell growth at 10^-8 M after 48 hrs by SRB assay; details: read-out: Activity
[27] = Cytotoxicity against human TK10 cells assessed as cell growth at 10^-8 M after 48 hrs by SRB assay; details: TK-10, 48 h, read-out: Activity
A549 [28] = assay: Cytotoxicity against human A549 cells assessed as cell growth at 10^-5 M after 48 hrs by SRB assay; details: A549, 48 h, read-out: Activity
[29] = Cytotoxicity against human OVCAR5 cells assessed as cell growth at 10^-6 M after 48 hrs by SRB assay; details: OVCAR-5, 48 h, read-out: Activity
[30] = Cytotoxicity against human IGROV1 cells assessed as cell growth at 10^-5 M after 48 hrs by SRB assay; details: IGROV-1, 48 h, read-out: Activity

CCCCCCCCCC(=O)Oc1ccc(/C(=C(/C)c2ccccc2)c2ccc(OCCN3CCCC3)cc2)cc1
growth at 5 µM (CCRF-CEM): 88%
growth at 0.005 µM (EKVX): 102%
growth at 0.005 µM [1]: 96%
growth at 5 µM (KM12): 94%
growth at 0.005 µM [2]: 101%
growth at 50 µM [3]: -85%
growth at 0.005 µM [4]: 103%
growth at 0.5 µM (MDA-MB-468): 69%
growth at 0.5 µM (A549 [5]): 96%
growth at 50 µM (MDA-MB-231): -67%
growth at 0.5 µM [6]: 62%
growth at 5 µM [7]: 95%
growth at 0.5 µM [8]: 83%
growth at 0.005 µM [9]: 108%
growth at 0.5 µM [10]: 86%
growth at 50 µM [11]: -72%
growth at 5 µM (MDA-MB-435): 82%
growth at 0.5 µM (A498): 49%
growth at 0.05 µM (A549 [12]): 102%
growth at 5 µM [13]: 82%
growth at 0.5 µM [14]: 91%
growth at 0.5 µM (MCF7 [15]): 29%

C/C(=C(/c1ccc(O)cc1)c1ccc(OCCN2CCCC2)cc1)c1ccccc1
growth at 0.1 µM (A549 [16]): 102%
growth at 100 µM (MCF7 [17]): -66%
growth at 0.01 µM [18]: 102%
growth at 0.01 µM [19]: 98%
growth at 100 µM [20]: -96%
growth at 10 µM [21]: 24%
growth at 100 µM (786-0): -85%
growth at 100 µM [22]: -80%
growth at 1 µM [23]: 104%
growth at 10 µM (NCI-H522): -38%
growth at 1 µM [24]: 95%
growth at 10 µM (NCI-H460): -38%
growth at 1 µM [25]: 95%
growth at 0.1 µM (T47D): 63%
growth at 0.1 µM [26]: 83%
growth at 0.01 µM (SN12C): 101%
growth at 0.01 µM [27]: 96%
growth at 10 µM (A549 [28]): 4%
growth at 1 µM [29]: 85%
growth at 10 µM [30]: 41%
